# Test results taken from patent US12187681B2 (Shanghai East Hospital, priority 2019, dated 2025).
# Where a name gives a salt, the structure may show the parent alone.
# Tests used:
# Assay type in all cases: cell-based
# [1] = biological target: T1, human calcium channel, voltage-dependent, L type (CaV1.2: CACNA1C, CACNB2, CACNA2D1) (Homo sapiens, UniProt Q13936); test: CaV1.2 channel whole-cell patch clamp (Ion Channel Activity Measurement); settings: room temperature; for Cav1.2 1 μM (ion-channel inhibition): 1 μM test article; for CaV 1.2 10 μM (ion-channel inhibition): 10 μM test article
# T1 construct: expressed in transfected cells; host or cells: CHO
# In short: (§1)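 Whole-cell patch clamp was run on CHO cells stably expressing CACNA1C/CACNB2/CACNA2D1 at 23–25 °C, with 10 mM CaCl2 TEA bath (pH 7.4) and CsCl pipette solution (pH 7.2). Currents were evoked from −80 mV to +10 mV for 0.3 s every 20 s without leak subtraction. Ascending concentrations were each applied for 5 min or until steady state.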
# [2] = biological target: T2, human ERG (ether-a-go-go related gene) potassium channel (Homo sapiens, UniProt Q12809); test: hERG channel whole-cell patch clamp (Ion Channel Activity Measurement); settings: room temperature; for hERG 1 μM (ion-channel inhibition): 1 μM test article; for hERG 10 μM (ion-channel inhibition): 10 μM test article
# T2 construct: expressed in transfected cells; host or cells: HEK293
# In short: (§2)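 HEK293 cells stably expressing hERG (NM_000238) were recorded by whole-cell patch clamp at 23-25° C. Holding potential −80 mV, step to 30 mV for 2.5 s, tail currents at −50 mV for 4 s, pulses every 10 s. Each concentration was perfused low to high for 5 min or to steady state, with each cell as its own control.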
# [3] = biological target: T3, Iks potassium voltage-gated channel (KCNQ1 and KCNE1) (Homo sapiens, UniProt P51787); test: Iks channel whole-cell patch clamp (Ion Channel Activity Measurement); settings: room temperature
# T3 construct: expressed in transfected cells; host or cells: CHO
# Method: (§3) CHO cell line stably expressing Iks potassium voltage-gated channel subfamily Q member 1(KCNQ1) and potassium voltage-gated channel subfamily E regulatory subunit 1 (KCNE1), cDNA strictly similar to GenBank accession number: NM_000218 and NM_000219
# (§4) Cells expressing channels were cultured in medium supplemented with 20% FBS in HAM'S F12 culture dish. Cells grew in a humidified incubator at 37° C. under 5% carbon dioxide. To passage cells, remove poor medium and rinse the cells once with PBS 1X. […] Place plate on a 37° C. warming incubator 5 min. As soon as cells are detached, add 5 ml of 37° C. complete medium. Draw cell suspension into a sterile pipet and homogenize cells gently to dissociate cells aggregates. Amplify or maintain the cells by seeding 2.5*105 cells in a 6 cm dish (final volume: 5 ml). To maintain electrophysiological performances, cell density must not exceed 80%. On the day before patch clamp experiment, 3*103 cells were seeded on coverslips in the 24-well plate and incubated at 37° C. in 5% carbon dioxide.
# (§5) Extracellular solution (mM): 140 NaCl, 2.5 KCl, 1 MgCl2, 2 CaCl2, 5 Glucose, 10 HEPES, pH=7.4 with NaOH.
# (§6) Pipette solution (mM): 120 K-aspartic, 10 HEPES, 5 MgCl2, 5 EGTA, 4 Na2-ATP 0.3 Na2-GTP, 14 mM Phosphocreatine disodium salt, 20 u/mL Creatine phosphor kinse pH 7.2 with KOH
# (§7) Glass pipette (BF150-86-10, Sutter Instruments) was made by puller (P97, Sutter Instruments). The glass pipette was manipulated using Micro-manipulator (Carm-C-S, MCI Instruments) under the microscope (AE31EF-INV, Motic). After touching the cell, a slight suction was applied to achieve high seal (GΩ). Fast capacitance (in pF) compensation was made after high seal was achieved; after achieving high seal, the membrane was broken, Cell capacitance (in pF) compensation was made from whole-cell capacitance compensation after the whole cell mode was achieved. No leak subtraction was made.
# (§8) Cell was incubated with the test article for 5 minutes, or until the current reached a steady-state level. Multiple concentrations of test article were tested. The test articles were applied gradually from low to high concentration. The test and control solutions were flown into a recording chamber mounted on the stage of an inverted microscope via a gravity-fed solution delivery system. During the experiment, solutions were withdrawn from the recording chamber by vacuum aspiration. Each concentration was tested at multiple times. Each cell acted as its own control. All tests were performed at room temperature (23-25° C.).
# (§9) IKs current was measured using a pulse protocol consisting of −80 mV holding potential increment up to +60 mV over a period of 5 seconds. And then quickly repolarizedat −40 mV and maintained for 4 seconds.
# [4] = biological target: T4, CaV1.2 (L-type voltage-dependent calcium channel; CACNA1C, CACNB2, CACNA2D1) (Homo sapiens, UniProt Q13936); test: CaV1.2 channel whole-cell patch clamp (Ion Channel Activity Measurement); settings: human, room temperature; for inhibition at 5 min, 1 μM: pH 7.4, 1 μM test article; for inhibition at 5 min, 10 μM: pH 7.4, 10 μM test article, read-out: CaV 1.2 10 μM (ion-channel inhibition)
# T4 construct: expressed in transfected cells; host or cells: CHO
# In short: as §1
# [5] = biological target: T5, hERG (human ether-a-go-go related gene potassium channel, KCNH2) (Homo sapiens, UniProt Q12809); test: hERG channel whole-cell patch clamp (Ion Channel Activity Measurement); settings: human, HEK293 cells expressing the human ERG potassium channel, room temperature; for inhibition at 1 μM: pH 7.4, 1 μM test article; for inhibition at 10 μM: pH 7.4, 10 μM test article
# T5 construct: expressed in transfected cells; host or cells: HEK293
# In short: as §2
# [6] = biological target: T6, Iks potassium channel (KCNQ1/KCNE1) (Homo sapiens, UniProt P51787); test: Iks channel whole-cell patch clamp (Ion Channel Activity Measurement); settings: human, CHO cells stably expressing Iks channel (KCNQ1 and KCNE1), room temperature; for inhibition at 5 min, 1 μM: pH 7.4, 1 μM test article; for inhibition at 5 min, 10 μM: pH 7.4, 10 μM test article
# T6 construct: expressed in transfected cells; host or cells: CHO
# T6 sequence (P51787 whole entry): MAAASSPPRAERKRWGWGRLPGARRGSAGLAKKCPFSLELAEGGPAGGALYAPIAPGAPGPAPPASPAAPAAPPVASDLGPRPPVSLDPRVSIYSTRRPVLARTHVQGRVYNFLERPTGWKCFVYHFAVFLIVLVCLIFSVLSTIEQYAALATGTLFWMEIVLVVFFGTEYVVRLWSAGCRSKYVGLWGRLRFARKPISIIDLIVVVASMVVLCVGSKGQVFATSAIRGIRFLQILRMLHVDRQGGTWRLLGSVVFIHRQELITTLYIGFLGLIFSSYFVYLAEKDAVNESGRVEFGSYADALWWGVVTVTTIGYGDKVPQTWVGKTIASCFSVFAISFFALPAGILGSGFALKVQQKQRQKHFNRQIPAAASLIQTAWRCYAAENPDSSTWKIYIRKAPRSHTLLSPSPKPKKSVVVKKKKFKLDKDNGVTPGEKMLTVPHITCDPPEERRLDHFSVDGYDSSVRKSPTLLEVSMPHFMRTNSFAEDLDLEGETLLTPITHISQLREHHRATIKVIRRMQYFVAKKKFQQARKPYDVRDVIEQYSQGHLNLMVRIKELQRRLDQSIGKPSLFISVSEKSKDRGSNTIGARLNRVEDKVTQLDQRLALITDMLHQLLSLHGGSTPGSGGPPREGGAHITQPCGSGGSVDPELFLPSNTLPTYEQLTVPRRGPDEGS
# Method: as §3, §4, §5, §6, §7, §8, §9
# T1 sequence (Q13936 1-2138 isoform Q13936-12): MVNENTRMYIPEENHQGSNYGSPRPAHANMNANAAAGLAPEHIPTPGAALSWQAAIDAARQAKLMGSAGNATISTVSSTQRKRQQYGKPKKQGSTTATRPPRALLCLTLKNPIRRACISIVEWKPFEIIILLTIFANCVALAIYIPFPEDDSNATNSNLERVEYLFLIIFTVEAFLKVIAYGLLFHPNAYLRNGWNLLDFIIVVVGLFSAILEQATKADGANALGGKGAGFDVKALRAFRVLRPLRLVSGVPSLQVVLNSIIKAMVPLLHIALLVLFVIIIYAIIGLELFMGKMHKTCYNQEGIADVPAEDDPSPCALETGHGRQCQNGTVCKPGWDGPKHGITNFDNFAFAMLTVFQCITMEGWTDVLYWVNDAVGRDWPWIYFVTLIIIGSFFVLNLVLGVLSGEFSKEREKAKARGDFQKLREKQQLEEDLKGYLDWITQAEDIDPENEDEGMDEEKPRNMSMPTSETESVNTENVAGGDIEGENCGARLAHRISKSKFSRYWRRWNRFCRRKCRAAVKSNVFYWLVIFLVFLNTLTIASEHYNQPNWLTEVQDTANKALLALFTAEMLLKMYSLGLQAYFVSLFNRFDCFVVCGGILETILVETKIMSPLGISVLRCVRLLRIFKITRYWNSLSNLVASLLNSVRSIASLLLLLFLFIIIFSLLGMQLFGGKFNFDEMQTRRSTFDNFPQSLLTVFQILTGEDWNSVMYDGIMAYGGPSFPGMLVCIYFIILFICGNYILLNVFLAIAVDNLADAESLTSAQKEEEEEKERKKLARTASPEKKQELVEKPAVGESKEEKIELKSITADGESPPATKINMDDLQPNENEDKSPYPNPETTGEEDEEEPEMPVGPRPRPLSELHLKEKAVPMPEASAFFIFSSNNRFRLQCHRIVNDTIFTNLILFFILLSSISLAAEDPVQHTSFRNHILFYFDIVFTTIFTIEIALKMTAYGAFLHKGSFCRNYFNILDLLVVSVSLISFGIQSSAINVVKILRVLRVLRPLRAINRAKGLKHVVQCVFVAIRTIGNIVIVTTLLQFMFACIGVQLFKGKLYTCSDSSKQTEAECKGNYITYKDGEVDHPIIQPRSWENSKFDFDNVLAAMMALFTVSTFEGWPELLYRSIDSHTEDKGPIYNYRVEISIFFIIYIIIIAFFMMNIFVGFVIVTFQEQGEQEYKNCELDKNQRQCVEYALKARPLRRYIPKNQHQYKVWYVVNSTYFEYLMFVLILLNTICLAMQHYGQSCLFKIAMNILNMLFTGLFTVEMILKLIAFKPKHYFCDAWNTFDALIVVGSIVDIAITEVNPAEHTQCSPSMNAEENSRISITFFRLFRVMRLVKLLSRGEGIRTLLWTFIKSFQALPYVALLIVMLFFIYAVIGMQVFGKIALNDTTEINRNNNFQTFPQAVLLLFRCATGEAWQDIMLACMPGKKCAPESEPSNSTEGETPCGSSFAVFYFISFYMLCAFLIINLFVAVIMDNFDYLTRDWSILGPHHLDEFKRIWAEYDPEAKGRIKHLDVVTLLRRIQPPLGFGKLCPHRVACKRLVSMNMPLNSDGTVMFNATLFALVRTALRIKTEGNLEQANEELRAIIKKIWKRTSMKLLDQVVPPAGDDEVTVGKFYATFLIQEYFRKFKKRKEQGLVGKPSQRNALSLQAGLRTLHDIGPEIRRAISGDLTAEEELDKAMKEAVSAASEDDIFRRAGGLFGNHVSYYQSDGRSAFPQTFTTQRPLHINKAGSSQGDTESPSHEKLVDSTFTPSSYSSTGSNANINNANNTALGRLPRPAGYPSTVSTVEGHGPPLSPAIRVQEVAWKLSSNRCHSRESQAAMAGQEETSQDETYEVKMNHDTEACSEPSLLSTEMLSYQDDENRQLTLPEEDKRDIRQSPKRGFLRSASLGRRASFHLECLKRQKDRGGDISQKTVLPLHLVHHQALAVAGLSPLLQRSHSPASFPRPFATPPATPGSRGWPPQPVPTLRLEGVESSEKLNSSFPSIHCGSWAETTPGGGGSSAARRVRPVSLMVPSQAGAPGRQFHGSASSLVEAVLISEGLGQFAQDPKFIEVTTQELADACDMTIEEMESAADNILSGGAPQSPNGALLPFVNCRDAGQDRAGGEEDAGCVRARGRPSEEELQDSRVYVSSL
# T1 sequence (Q08289 1-605 isoform Q08289-2 partner): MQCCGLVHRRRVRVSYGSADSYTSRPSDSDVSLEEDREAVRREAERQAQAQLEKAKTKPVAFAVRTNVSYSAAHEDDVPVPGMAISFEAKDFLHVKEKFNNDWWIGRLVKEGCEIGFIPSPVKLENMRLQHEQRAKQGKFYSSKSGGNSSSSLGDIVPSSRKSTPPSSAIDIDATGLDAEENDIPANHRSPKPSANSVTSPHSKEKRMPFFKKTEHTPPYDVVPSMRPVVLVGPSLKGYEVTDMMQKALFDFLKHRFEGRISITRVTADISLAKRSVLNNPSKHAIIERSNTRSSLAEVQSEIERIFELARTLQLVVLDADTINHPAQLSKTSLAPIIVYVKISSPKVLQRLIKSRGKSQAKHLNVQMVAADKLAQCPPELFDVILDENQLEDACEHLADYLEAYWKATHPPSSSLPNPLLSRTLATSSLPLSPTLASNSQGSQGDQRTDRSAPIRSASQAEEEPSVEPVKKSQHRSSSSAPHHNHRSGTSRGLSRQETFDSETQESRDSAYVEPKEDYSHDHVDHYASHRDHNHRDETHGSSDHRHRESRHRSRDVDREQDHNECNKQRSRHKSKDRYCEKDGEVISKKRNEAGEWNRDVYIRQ
# T1 sequence (P54289 25-1091 isoform P54289-2 partner limits assumed): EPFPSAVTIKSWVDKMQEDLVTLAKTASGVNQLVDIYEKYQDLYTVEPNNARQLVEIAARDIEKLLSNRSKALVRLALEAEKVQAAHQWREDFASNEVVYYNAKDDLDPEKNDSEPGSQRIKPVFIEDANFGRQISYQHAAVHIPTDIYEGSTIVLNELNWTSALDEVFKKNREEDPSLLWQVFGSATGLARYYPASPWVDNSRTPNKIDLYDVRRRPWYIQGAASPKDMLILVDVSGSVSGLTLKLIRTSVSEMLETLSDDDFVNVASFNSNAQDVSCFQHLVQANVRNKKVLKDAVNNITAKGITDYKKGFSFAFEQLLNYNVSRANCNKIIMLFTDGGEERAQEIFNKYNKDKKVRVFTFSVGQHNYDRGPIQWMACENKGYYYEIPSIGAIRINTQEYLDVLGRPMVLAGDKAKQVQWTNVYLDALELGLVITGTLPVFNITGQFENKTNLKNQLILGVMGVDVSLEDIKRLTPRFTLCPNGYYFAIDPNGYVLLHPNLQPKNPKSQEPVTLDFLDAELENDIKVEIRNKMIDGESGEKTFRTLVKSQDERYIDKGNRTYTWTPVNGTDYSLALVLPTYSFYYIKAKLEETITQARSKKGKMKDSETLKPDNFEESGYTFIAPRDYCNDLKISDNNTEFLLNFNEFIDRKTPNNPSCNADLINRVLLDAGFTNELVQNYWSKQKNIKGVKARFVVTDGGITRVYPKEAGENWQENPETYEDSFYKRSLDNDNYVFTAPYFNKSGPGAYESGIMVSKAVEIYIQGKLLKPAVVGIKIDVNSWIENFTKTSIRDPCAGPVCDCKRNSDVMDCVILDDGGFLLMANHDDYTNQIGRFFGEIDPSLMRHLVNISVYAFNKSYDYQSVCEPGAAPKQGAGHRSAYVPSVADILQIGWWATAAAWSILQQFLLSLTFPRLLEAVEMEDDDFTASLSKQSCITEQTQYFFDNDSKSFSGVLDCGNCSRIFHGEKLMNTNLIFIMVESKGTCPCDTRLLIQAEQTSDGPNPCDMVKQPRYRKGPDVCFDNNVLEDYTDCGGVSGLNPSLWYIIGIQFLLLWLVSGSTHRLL
# T1 sequence (P54289 957-1103 partner limits assumed): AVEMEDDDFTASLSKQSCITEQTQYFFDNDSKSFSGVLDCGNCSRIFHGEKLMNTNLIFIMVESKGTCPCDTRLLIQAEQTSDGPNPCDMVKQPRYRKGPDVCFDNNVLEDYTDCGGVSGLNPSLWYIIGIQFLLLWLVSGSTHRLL
SMILES,Cav1.2 1 μM (ion-channel inhibition) [1],CaV 1.2 10 μM (ion-channel inhibition) [1],hERG 1 μM (ion-channel inhibition) [2],hERG 10 μM (ion-channel inhibition) [2],Iks 1 μM (ion-channel inhibition) ([3]; 1 μM test article),Iks 10 μM (ion-channel inhibition) ([3]; 10 μM test article),"inhibition at 5 min, 1 μM [4] [%]","inhibition at 5 min, 10 μM [4] [%]",inhibition at 1 μM [5] [%],"inhibition at 5 min, 1 μM [6] [%]","inhibition at 5 min, 10 μM [6] [%]",inhibition at 10 μM [5] [%]
"Oc1cccc(-c2ccccc2)c1Cc1c(O)cccc1-c1ccccc1 [Compound A034, 2,2″-methylenebis(([1,1′-biphenyl]-3-ol))]",D (D = <25%),B (B = = 50-75%),D (D = <25%),D (D = <25%),,,,,,,,
"CCN(CC)CCOc1ccc2ccccc2c1Cc1c(O)ccc2ccccc12.O=CO [Compound A093, 1-((2-(2-(diethylamino)ethoxy)naphthalen-1-yl)methyl)naphthalen-2-ol formate]",C (C = 25-50%),A (A = 75-100%),A (A = 75-100%),A (A = 75-100%),D (D = <25%),A (A = 75-100%),,,,,,
"Oc1ccc2ccccc2c1Cc1c(OCCN2CCCC2)ccc2ccccc12 [Compound A129, 1-((2-(2-(pyrrolidin-1-yl)ethoxy)naphthalen-1-yl)methyl)naphthalen-2-ol]",,,,,,,25 to 50,75 to 100,75 to 100,25 to 50,75 to 100,
"COc1ccc2ccccc2c1Cc1c(OCC[N+]2(C)CCOCC2)ccc2ccccc12 [Compound A130-2, 4-(2-((1-((2-methoxynaphthalen-1-yl)methyl)naphthalen-2-yl)oxy)ethyl)-4-methylmorpholin-4-ium formate]",,,,,,,50 to 75,75 to 100,75 to 100,< 25,25 to 50,
"CN(C)CCOc1ccc2ccccc2c1Cc1c(O)ccc2ccccc12 [Compound A134, 1-((2-(2-(dimethylamino)ethoxy)naphthalen-1-yl)methyl)naphthalen-2-ol]",,,,,,,< 25,75 to 100,75 to 100,25 to 50,75 to 100,75 to 100
"CCN(CC)CCCOc1ccc2ccccc2c1Cc1c(O)ccc2ccccc12 [Compound A135, 1-((2-(3-(diethylamino)propoxy)naphthalen-1-yl)methyl)naphthalen-2-ol]",,,,,,,25 to 50,75 to 100,75 to 100,< 25,75 to 100,75 to 100
"CCN(CC)CCOc1ccc2ccccc2c1Sc1c(O)ccc2ccccc12 [Compound A151, 1-((2-(2-(diethylamino)ethoxy)naphthalen-1-yl)thio)naphthalen-2-ol]",,,,,,,< 25,75 to 100,75 to 100,25 to 50,75 to 100,75 to 100
"CCN(CC)CCOc1ccc2ccccc2c1Sc1c(OC)ccc2ccccc12 [Compound A152, N,N-diethyl-2-((1-((2-methoxynaphthalen-1-yl)thio)naphthalen-2-yl)oxy)ethan-1-amine]",,,,,,,< 25,75 to 100,75 to 100,< 25,50 to 75,
"CC[N+](C)(CC)CCOc1ccc2ccccc2c1Sc1c(OC)ccc2ccccc12 [Compound A191, diethyl(2-((1-((2-methoxynaphthalen-1-yl)thio)naphthalen-2-yl)oxy)ethyl)(methyl)-14-azane, iodide salt]",,,,,,,25 to 50,75 to 100,75 to 100,< 25,,75 to 100
